{"source": "BigSolDB 2.1", "data": [{"smiles": "Cc1onc(-c2c(Cl)cccc2Cl)c1C(=O)N[C@@H]1C(=O)N2[C@@H]1SC(C)(C)[C@@H]2C(=O)[O-].O.[Na+]", "values": [{"measurement": "solubility (mole fraction)", "setting": "in acetone, 288.15 K", "value": 0.000605}, {"measurement": "solubility (mole fraction)", "setting": "in acetone, 293.15 K", "value": 0.000795}, {"measurement": "solubility (mole fraction)", "setting": "in acetone, 298.15 K", "value": 0.00101}, {"measurement": "solubility (mole fraction)", "setting": "in acetone, 303.15 K", "value": 0.00128}, {"measurement": "solubility (mole fraction)", "setting": "in acetone, 308.15 K", "value": 0.00161}, {"measurement": "solubility (mole fraction)", "setting": "in acetone, 313.15 K", "value": 0.00198}, {"measurement": "solubility (mole fraction)", "setting": "in acetone, 318.15 K", "value": 0.00244}, {"measurement": "solubility (mole fraction)", "setting": "in acetonitrile, 288.15 K", "value": 0.000144}, {"measurement": "solubility (mole fraction)", "setting": "in acetonitrile, 293.15 K", "value": 0.000155}, {"measurement": "solubility (mole fraction)", "setting": "in acetonitrile, 298.15 K", "value": 0.000174}, {"measurement": "solubility (mole fraction)", "setting": "in acetonitrile, 303.15 K", "value": 0.000184}, {"measurement": "solubility (mole fraction)", "setting": "in acetonitrile, 308.15 K", "value": 0.000209}, {"measurement": "solubility (mole fraction)", "setting": "in acetonitrile, 313.15 K", "value": 0.000221}, {"measurement": "solubility (mole fraction)", "setting": "in acetonitrile, 318.15 K", "value": 0.000246}, {"measurement": "solubility (mole fraction)", "setting": "in ethanol, 288.15 K", "value": 0.00146}, {"measurement": "solubility (mole fraction)", "setting": "in ethanol, 293.15 K", "value": 0.00167}, {"measurement": "solubility (mole fraction)", "setting": "in ethanol, 298.15 K", "value": 0.00187}, {"measurement": "solubility (mole fraction)", "setting": "in ethanol, 303.15 K", "value": 0.00211}, {"measurement": "solubility (mole fraction)", "setting": "in ethanol, 308.15 K", "value": 0.00237}, {"measurement": "solubility (mole fraction)", "setting": "in ethanol, 313.15 K", "value": 0.00267}, {"measurement": "solubility (mole fraction)", "setting": "in ethanol, 318.15 K", "value": 0.00292}, {"measurement": "solubility (mole fraction)", "setting": "in ethyl acetate, 288.15 K", "value": 0.000548}, {"measurement": "solubility (mole fraction)", "setting": "in ethyl acetate, 293.15 K", "value": 0.000686}, {"measurement": "solubility (mole fraction)", "setting": "in ethyl acetate, 298.15 K", "value": 0.000843}, {"measurement": "solubility (mole fraction)", "setting": "in ethyl acetate, 303.15 K", "value": 0.001}, {"measurement": "solubility (mole fraction)", "setting": "in ethyl acetate, 308.15 K", "value": 0.00123}, {"measurement": "solubility (mole fraction)", "setting": "in ethyl acetate, 313.15 K", "value": 0.00149}, {"measurement": "solubility (mole fraction)", "setting": "in ethyl acetate, 318.15 K", "value": 0.00178}, {"measurement": "solubility (mole fraction)", "setting": "in isopropanol, 288.15 K", "value": 0.000409}, {"measurement": "solubility (mole fraction)", "setting": "in isopropanol, 293.15 K", "value": 0.000524}, {"measurement": "solubility (mole fraction)", "setting": "in isopropanol, 298.15 K", "value": 0.000618}, {"measurement": "solubility (mole fraction)", "setting": "in isopropanol, 303.15 K", "value": 0.000683}, {"measurement": "solubility (mole fraction)", "setting": "in isopropanol, 308.15 K", "value": 0.000854}, {"measurement": "solubility (mole fraction)", "setting": "in isopropanol, 313.15 K", "value": 0.000958}, {"measurement": "solubility (mole fraction)", "setting": "in isopropanol, 318.15 K", "value": 0.00118}, {"measurement": "solubility (mole fraction)", "setting": "in methanol, 288.15 K", "value": 0.0418}, {"measurement": "solubility (mole fraction)", "setting": "in methanol, 293.15 K", "value": 0.0476}, {"measurement": "solubility (mole fraction)", "setting": "in methanol, 298.15 K", "value": 0.0536}, {"measurement": "solubility (mole fraction)", "setting": "in methanol, 303.15 K", "value": 0.06}, {"measurement": "solubility (mole fraction)", "setting": "in methanol, 308.15 K", "value": 0.0657}, {"measurement": "solubility (mole fraction)", "setting": "in methanol, 313.15 K", "value": 0.0768}, {"measurement": "solubility (mole fraction)", "setting": "in methanol, 318.15 K", "value": 0.0853}]}]}
